Measurements published in patent US20220324770A1, “NITRIFICATION INHIBITORS” (The University of Melbourne, priority 2019, published 2022).

Tests used:
[1] = system: Terang soil; test: Soil microcosm incubation (nitrification of applied ammonium), Terang soil; settings: Terang soil pH 6.5, 25° C., L-DMPP 1.5 mol %; for Nitrified NH4+—N (%) Day 3: compounds 10 mol % of applied N, (NH4)2SO4 100 mg N per kg soil; for Nitrified NH4+—N (%) Day 7 / Nitrified NH4+—N (%) Day 14 / Nitrified NH4+—N (%) Day 28: compounds 10 mol %
Protocol: (§1) The soil used in this study was collected from four different locations in Victoria, Australia: (i) a wheat cropping soil from Horsham (36° 45′S, 142° 07′ E), (ii) a rotational cropping soil from Dahlen (36° 37′S, 142° 09′ E), (iii) a vegetable growing soil from Clyde (38° 08′S, 145° 20′ E), and (iv) a pasture soil from Terang (38° 15′S, 142° 52′E). In addition, a sugarcane cropping soil from South Johnstone in northern Queensland (17° 34′S, 145° 57′ E) was also studied. The water content of the soil was calculated before commencing each experiment, from samples that were oven-dried to constant weight. The soil's water-filled pore space (WFPS) was in the range 52%-61%, which is within the recommended 50-70% range for microbial activity due to oxygen and nutrient availability (Fichtner, T., et al., Applied Sciences, 2019, 9, 496).
(§2) Soil microcosm incubations were carried out in 250 ml polypropylene specimen containers (Sarstedt, Germany), containing 18.24 g oven dry-weight equivalent of soil. Microcosms were re-wetted and pre-incubated at the test temperature for seven days to revive soil microbial activity. Following pre-incubation, the remaining volume to reach the desired water-filled pore spaces (WFPS %) was applied as one of the following treatment solutions; (NH4)2SO4(Control), (NH4)2SO4+DMPP, or (NH4)2SO4+one of Compounds 1-23. Each treatment was applied in triplicate per soil type, so that n=3 at each time point.
(§3) Treatment solutions were prepared such that each microcosm received (NH4)2SO4 at a rate of 100 mg N per kg soil, Compounds 1-23 at 10 mol % of applied N, or DMPP at one of 1.5, 3.6 or 10 mol % of applied N, referred to as L-DMPP, M-DMPP or H-DMPP respectively.
(§4) The microcosms were incubated for 0, 3, 7, 14, 21 or 28 days, where day 0 samples were extracted following 1-hour incubation post-treatment. Soil microcosms were aerated and moisture levels were replenished based on weight loss every few days throughout the incubation period.
(§5) At the end of each incubation period, soil microcosms were destructively sampled by treatment with 2M KCl (100 mL). After shaking for 1 hour, soil-KCl solutions were filtered (Whatman 42) before storing the filtrates at −20° C. until the conclusion of the experiment. All KCl extracts were then analysed by Segmented Flow Analysis (San++, Skalar, Breda, The Netherlands) for the concentration of nitrogen from ammonium (NH4^+—N) and nitrogen from NO3 and NO2 (NOx^−—N) after appropriate dilutions. Results are reported as the mean of three replicates, errors reported are standard errors of the mean.
(§6) Nitrification calculations were performed as previously reported (Aulakh, M., et al., Biology and Fertility of Soils 2001, 33, 258-263; Mahmood, T., et al., Soil Research 2017, 55, 715-722) without correction for the initial baseline concentrations of NH4^+—N or NO3^− N in the untreated soil. For each treatment nitrified NH4^+—N (%) was calculated according to eqn. 1:
(§7) where [NH4^+—N]0 is the NH4^+—N concentration (in mg N kg^−1 soil) of the soil on day 0 and [NH4^+—N]t is the NH4^+—N concentration (in mg N kg^−1 soil) of the soil at a given time point t.

[2] = system: South Johnstone soil; test: Soil microcosm incubation (nitrification of applied ammonium), South Johnstone soil; settings: for Nitrified NH4+—N (%) Day 3 / Nitrified NH4+—N (%) Day 7 / Nitrified NH4+—N (%) Day 14 / Nitrified NH4+—N (%) Day 21 / Nitrified NH4+—N (%) Day 28: 10 mol %
Protocol: as §1, §2, §3, §4, §5, §6, §7

[3] = system: Dahlen soil; test: Soil microcosm incubation (nitrification of applied ammonium), Dahlen soil; settings: for Nitrified NH4+—N (%) Day 3 / Nitrified NH4+—N (%) Day 7 / Nitrified NH4+—N (%) Day 14 / Nitrified NH4+—N (%) Day 21 / Nitrified NH4+—N (%) Day 28: 10 mol %
Protocol: as §1, §2, §3, §4, §5, §6, §7
(§8) NOx^−—N accumulation rates (mg NOx^−—N/kg soil/day) over the 28-day incubation experiments were calculated for each treatment as in the following (eqn. 2):
(§9) [NOx^−—N]t=0 and [NOx^−—N]t=28 are the combined concentrations of nitrite (NO2) and nitrate (NO3) in the soil (in mg N kg^−1 soil) on day 0 and day 28, respectively.

[4] = system: Horsham soil; test: Soil microcosm incubation (nitrification of applied ammonium), Horsham soil
Protocol: as §1, §2, §3, §4, §5, §6, §7, §8, §9

[5] = South Johnstone soil pH 5.0, 25° C.
[6] = South Johnstone soil pH 5.0, 35° C.
[7] = Table 5, Dahlen soil pH 7.3, 25° C.
[8] = Table 5, Dahlen soil pH 7.3, 35° C.
[9] = Horsham soil pH 8.8, 25° C., 10 mol %
[10] = Horsham soil pH 8.8, 35° C., 10 mol %
[11] = Table 4, Dahlen soil pH 7.3, 25° C.
[12] = Table 4, Dahlen soil pH 7.3, 35° C.

## CCCCCc1cn(CCCC)nn1 [Compound 1, 1-butyl-4-pentyl-1H-1,2,3-triazole]
[1]
  Nitrified NH4+—N (%) Day 3: 13.6 ± 3.1%
  Nitrified NH4+—N (%) Day 7: 43.1 ± 3.7%
  Nitrified NH4+—N (%) Day 14: 85.1 ± 4.5%
  Nitrified NH4+—N (%) Day 28: 100 ± 4.2%

## CCCCn1cc(C(C)(C)O)nn1 [Compound 4, 1-butyl-4-(α,α-dimethylmethanol)-1H-1,2,3-triazole]
[1]
  Nitrified NH4+—N (%) Day 3: 27.0 ± 7.5%
  Nitrified NH4+—N (%) Day 7: 67.3 ± 5.2%
  Nitrified NH4+—N (%) Day 14: 96.4 ± 5.8%
  Nitrified NH4+—N (%) Day 28: 100 ± 5.9%

## C=CCn1cc(CCC)nn1 [Compound 18, 1-(2-propen-1-yl)-4-propyl-1H-1,2,3-triazole]
[2]; South Johnstone soil pH 5.0, 25° C., negative = NH4+—N higher than day 0 (mineralisation)
  Nitrified NH4+—N (%) Day 3: −6.2 ± 0.9%
[2]; [5]
  Nitrified NH4+—N (%) Day 7: −8.5 ± 1.0%
  Nitrified NH4+—N (%) Day 14: −11.0 ± 1.0%
  Nitrified NH4+—N (%) Day 21: −12.1 ± 1.4%
[2]; South Johnstone soil pH 5.0, 25° C., day 28
  Nitrified NH4+—N (%) Day 28: −14.9 ± 1.4%
[2]; [6]
  Nitrified NH4+—N (%) Day 3: −11.7 ± 2.0%
  Nitrified NH4+—N (%) Day 7: −28.7 ± 1.5%
  Nitrified NH4+—N (%) Day 14: −35.8 ± 1.3%
  Nitrified NH4+—N (%) Day 21: −31.7 ± 1.1%
[2]; South Johnstone soil pH 5.0, 35° C., day 28
  Nitrified NH4+—N (%) Day 28: −16.9 ± 1.8%
[2]; South Johnstone soil, 25° C., day 28
  effectiveness compared to treatment with DMPP (higher NH4+—N, lower NOx−—N): statistically higher effectiveness
[2]; South Johnstone soil, 35° C.
  retaining NH4+—N vs DMPP: performed statistically better than DMPP
[2]; South Johnstone soil, 35° C., day 28
  retaining NH4+—N and slowing NOx−—N growth vs fertilised control: performed statistically better than the fertilised control
[3]; Dahlen soil, 25° C., Table 5 test
  retaining NH4+—N levels by day 28 vs fertilised control (and DMPP): performed statistically better
[3]; Dahlen soil, 35° C., Table 5 test
  retaining NH4+—N vs (NH4)2SO4-treated control by day 28: remain highly effective
[3]; Table 5 (further comparative test), Dahlen soil pH 7.3, 25° C.
  Nitrified NH4+—N (%) Day 3: 5.1 ± 5.3%
[3]; [7]
  Nitrified NH4+—N (%) Day 7: 4.4 ± 1.1%
  Nitrified NH4+—N (%) Day 14: 29.4 ± 2.4%
  Nitrified NH4+—N (%) Day 21: 32.1 ± 2.3%
  Nitrified NH4+—N (%) Day 28: 40.5 ± 1.5%
[3]; [8]
  Nitrified NH4+—N (%) Day 3: 9.0 ± 4.3%
  Nitrified NH4+—N (%) Day 7: 4.5 ± 4.3%
  Nitrified NH4+—N (%) Day 14: 26.7 ± 3.9%
  Nitrified NH4+—N (%) Day 21: 19.8 ± 5.0%
  Nitrified NH4+—N (%) Day 28: 43.0 ± 4.7%

## CCCCc1cn(CCCC)nn1 [Compound 2, 1,4-butyl-1H-1,2,3-triazole]
[4]; Horsham soil pH 8.8, 25° C., inhibitors 10 mol % of applied N
  Nitrified NH4+—N (%) Day 3: 12.2 ± 8.6%
[4]; [9]
  Nitrified NH4+—N (%) Day 7: 17.9 ± 6.9%
  Nitrified NH4+—N (%) Day 14: 44.5 ± 7.2%
  Nitrified NH4+—N (%) Day 21: 66.6 ± 8.9%
  Nitrified NH4+—N (%) Day 28: 90.4 ± 9.7%
[4]; [10]
  Nitrified NH4+—N (%) Day 3: −3.3 ± 5.9%
  Nitrified NH4+—N (%) Day 7: 8.8 ± 5.5%
  Nitrified NH4+—N (%) Day 14: 40.3 ± 5.4%
  Nitrified NH4+—N (%) Day 21: 53.8 ± 9.4%
  Nitrified NH4+—N (%) Day 28: 71.6 ± 22.9%
[4]; Horsham soil, 25° C., after 28 days
  retaining NH4+ vs uninhibited control treatment: to a lesser extent
[4]; Horsham soil, 28-day incubation
  NOx−—N accumulation: effect of temperature (25° C. vs 35° C.): lower at the elevated temperature
[4]; Horsham soil, 35° C.
  nitrification rates vs uninhibited control treatment: lower nitrification rates than the uninhibited control treatment
[3]; Dahlen soil, 25° C., after 28 days
  retaining NH4+—N vs uninhibited control treatment and DMPP: performed statistically better
[3]; Dahlen soil, 35° C., after 28 days
  retaining NH4+ vs both DMPP treatment and control treatment: performed statistically better
[3]; [11]
  Nitrified NH4+—N (%) Day 3: 7.5 ± 5.2%
  Nitrified NH4+—N (%) Day 7: 21.2 ± 12.2%
  Nitrified NH4+—N (%) Day 14: 20.3 ± 21.6%
  Nitrified NH4+—N (%) Day 21: 32.9 ± 18.4%
  Nitrified NH4+—N (%) Day 28: 37.6 ± 11.0%
[3]; [12]
  Nitrified NH4+—N (%) Day 3: 1.7 ± 3.3%
  Nitrified NH4+—N (%) Day 7: −1.3 ± 1.9%
  Nitrified NH4+—N (%) Day 14: 2.0 ± 2.4%
  Nitrified NH4+—N (%) Day 21: 29.6 ± 3.6%
  Nitrified NH4+—N (%) Day 28: 22.4 ± 1.5%
[1]
  Nitrified NH4+—N (%) Day 3: 27.2 ± 2.0%
  Nitrified NH4+—N (%) Day 7: 64.8 ± 2.3%
  Nitrified NH4+—N (%) Day 14: 95.6 ± 2.8%
  Nitrified NH4+—N (%) Day 28: 100 ± 2.7%
